Measurements from the supplement of paper PMC13207355.
Where a name gives a salt, the structure may show the parent alone.

Legend:
Settings in all cases: exposure time: 72 h
E13 [1] = patient-derived glioblastoma stem cells of classical subtype; test: surviving fraction (nuclei count normalised to DMSO); higher = more cells surviving (less toxic)
E21 [2] = patient-derived glioblastoma stem cells of mesenchymal subtype; test: as above
E28 [3] = patient-derived glioblastoma stem cells of classical subtype; test: as above
E31 [4] = patient-derived glioblastoma stem cells of proneural subtype; test: as above
E34 [5] = patient-derived glioblastoma stem cells of proneural subtype; test: as above
E57 [6] = patient-derived glioblastoma stem cells of mesenchymal subtype; test: as above
FT3469 [7] = normal neural stem cell line; test: as above
E13 [8] = test: phenotypic distance (Euclidean, principal components) from DMSO controls (arbitrary units); higher = stronger morphological change
E21 [9] = test: as above
E28 [10] = test: as above
E31 [11] = test: as above
E34 [12] = test: as above
E57 [13] = test: as above
FT3469 [14] = test: as above
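Wherever phenotypic distance (Euclidean, principal components) from DMSO controls is given: cell Painting imaging in 384-well plates, CellProfiler features reduced to at least 20 principal components, Euclidean distance versus same-plate DMSO vehicle wells (0.1% v/v), median over six images per well.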
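Wherever surviving fraction (nuclei count normalised to DMSO) is given: nuclei counted by high-content imaging of Hoechst-stained cells in laminin-coated 384-well plates, relative to 0.1% DMSO vehicle wells, with staurosporine as cell-death control.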

S=c1[nH]cnc2nc[nH]c12 [Mercaptopurine]
Settings | phenotypic distance | surviving fraction
E13 [1], 4.1 nM | – | 0.921
E13 [1], 12.3 nM | – | 0.917
E13 [1], 37 nM | – | 0.937
E13 [1], 111.1 nM | – | 1.04
E13 [1], 333.3 nM | – | 0.899
E13 [1], 1000 nM | – | 1.07
E13 [1], 3000 nM | – | 0.933
E13 [8], 4.1 nM | 0.545 | –
E13 [8], 12.3 nM | 0.627 | –
E13 [8], 37 nM | 0.483 | –
E13 [8], 111.1 nM | 0.814 | –
E13 [8], 333.3 nM | 0.609 | –
E13 [8], 1000 nM | 0.518 | –
E13 [8], 3000 nM | 0.658 | –
E21 [2], 4.1 nM | – | 1.09
E21 [2], 12.3 nM | – | 1.04
E21 [2], 37 nM | – | 0.958
E21 [2], 111.1 nM | – | 1.01
E21 [2], 333.3 nM | – | 0.977
E21 [2], 1000 nM | – | 0.922
E21 [2], 3000 nM | – | 1.05
E21 [9], 4.1 nM | 0.78 | –
E21 [9], 12.3 nM | 1.43 | –
E21 [9], 37 nM | 0.81 | –
E21 [9], 111.1 nM | 0.892 | –
E21 [9], 333.3 nM | 0.78 | –
E21 [9], 1000 nM | 1.02 | –
E21 [9], 3000 nM | 0.813 | –
E28 [3], 4.1 nM | – | 0.929
E28 [3], 12.3 nM | – | 1.02
E28 [3], 37 nM | – | 0.893
E28 [3], 111.1 nM | – | 1.13
E28 [3], 333.3 nM | – | 0.931
E28 [3], 1000 nM | – | 0.942
E28 [3], 3000 nM | – | 0.996
E28 [10], 4.1 nM | 0.534 | –
E28 [10], 12.3 nM | 1.01 | –
E28 [10], 37 nM | 0.638 | –
E28 [10], 111.1 nM | 0.681 | –
E28 [10], 333.3 nM | 0.395 | –
E28 [10], 1000 nM | 0.531 | –
E28 [10], 3000 nM | 0.838 | –
E31 [4], 4.1 nM | – | 1.1
E31 [4], 12.3 nM | – | 1.04
E31 [4], 37 nM | – | 0.994
E31 [4], 111.1 nM | – | 1.08
E31 [4], 333.3 nM | – | 1
E31 [4], 1000 nM | – | 1.16
E31 [4], 3000 nM | – | 0.862
E31 [11], 4.1 nM | 0.771 | –
E31 [11], 12.3 nM | 0.551 | –
E31 [11], 37 nM | 0.636 | –
E31 [11], 111.1 nM | 0.699 | –
E31 [11], 333.3 nM | 0.484 | –
E31 [11], 1000 nM | 0.59 | –
E31 [11], 3000 nM | 0.762 | –
E34 [5], 4.1 nM | – | 1.04
E34 [5], 12.3 nM | – | 1.18
E34 [5], 37 nM | – | 1.17
E34 [5], 111.1 nM | – | 1.09
E34 [5], 333.3 nM | – | 0.961
E34 [5], 1000 nM | – | 1.18
E34 [5], 3000 nM | – | 0.823
E34 [12], 4.1 nM | 0.504 | –
E34 [12], 12.3 nM | 0.959 | –
E34 [12], 37 nM | 0.783 | –
E34 [12], 111.1 nM | 0.796 | –
E34 [12], 333.3 nM | 0.438 | –
E34 [12], 1000 nM | 0.992 | –
E34 [12], 3000 nM | 0.809 | –
E57 [6], 4.1 nM | – | 1.14
E57 [6], 12.3 nM | – | 1.06
E57 [6], 37 nM | – | 1.02
E57 [6], 111.1 nM | – | 1.03
E57 [6], 333.3 nM | – | 1.06
E57 [6], 1000 nM | – | 1.11
E57 [6], 3000 nM | – | 1.1
E57 [13], 4.1 nM | 0.611 | –
E57 [13], 12.3 nM | 0.822 | –
E57 [13], 37 nM | 1.19 | –
E57 [13], 111.1 nM | 0.97 | –
E57 [13], 333.3 nM | 0.524 | –
E57 [13], 1000 nM | 0.658 | –
E57 [13], 3000 nM | 0.893 | –
FT3469 [7], 4.1 nM | – | 1.13
FT3469 [7], 12.3 nM | – | 1.18
FT3469 [7], 37 nM | – | 1.05
FT3469 [7], 111.1 nM | – | 1.24
FT3469 [7], 333.3 nM | – | 1.1
FT3469 [7], 1000 nM | – | 1.09
FT3469 [7], 3000 nM | – | 1.18
FT3469 [14], 4.1 nM | 0.501 | –
FT3469 [14], 12.3 nM | 0.977 | –
FT3469 [14], 37 nM | 0.81 | –
FT3469 [14], 111.1 nM | 1.22 | –
FT3469 [14], 333.3 nM | 0.759 | –
FT3469 [14], 1000 nM | 0.781 | –
FT3469 [14], 3000 nM | 0.82 | –

CC(C)NCC(O)COc1cccc2ccccc12 (stereo unspecified) [Propranolol hydrochloride]
Settings | phenotypic distance | surviving fraction
E13 [1], 4.1 nM | – | 0.971
E13 [1], 12.3 nM | – | 1.08
E13 [1], 37 nM | – | 0.923
E13 [1], 111.1 nM | – | 1.07
E13 [1], 333.3 nM | – | 1.1
E13 [1], 1000 nM | – | 1.03
E13 [1], 3000 nM | – | 0.991
E13 [8], 4.1 nM | 0.572 | –
E13 [8], 12.3 nM | 1.82 | –
E13 [8], 37 nM | 0.661 | –
E13 [8], 111.1 nM | 0.582 | –
E13 [8], 333.3 nM | 0.522 | –
E13 [8], 1000 nM | 0.547 | –
E13 [8], 3000 nM | 0.516 | –
E21 [2], 4.1 nM | – | 0.912
E21 [2], 12.3 nM | – | 0.926
E21 [2], 37 nM | – | 0.978
E21 [2], 111.1 nM | – | 1.01
E21 [2], 333.3 nM | – | 1.01
E21 [2], 1000 nM | – | 1.1
E21 [2], 3000 nM | – | 1
E21 [9], 4.1 nM | 0.729 | –
E21 [9], 12.3 nM | 0.784 | –
E21 [9], 37 nM | 0.999 | –
E21 [9], 111.1 nM | 0.707 | –
E21 [9], 333.3 nM | 0.864 | –
E21 [9], 1000 nM | 0.673 | –
E21 [9], 3000 nM | 0.713 | –
E28 [3], 4.1 nM | – | 0.98
E28 [3], 12.3 nM | – | 1.05
E28 [3], 37 nM | – | 0.949
E28 [3], 111.1 nM | – | 1.12
E28 [3], 333.3 nM | – | 1.03
E28 [3], 1000 nM | – | 1.13
E28 [3], 3000 nM | – | 1.03
E28 [10], 4.1 nM | 0.642 | –
E28 [10], 12.3 nM | 0.425 | –
E28 [10], 37 nM | 0.914 | –
E28 [10], 111.1 nM | 0.692 | –
E28 [10], 333.3 nM | 0.687 | –
E28 [10], 1000 nM | 0.509 | –
E28 [10], 3000 nM | 0.633 | –
E31 [4], 4.1 nM | – | 0.954
E31 [4], 12.3 nM | – | 0.993
E31 [4], 37 nM | – | 1.1
E31 [4], 111.1 nM | – | 1.08
E31 [4], 333.3 nM | – | 0.917
E31 [4], 1000 nM | – | 0.96
E31 [4], 3000 nM | – | 1.05
E31 [11], 4.1 nM | 0.541 | –
E31 [11], 12.3 nM | 0.694 | –
E31 [11], 37 nM | 0.736 | –
E31 [11], 111.1 nM | 0.802 | –
E31 [11], 333.3 nM | 0.203 | –
E31 [11], 1000 nM | 0.509 | –
E31 [11], 3000 nM | 0.646 | –
E34 [5], 4.1 nM | – | 0.945
E34 [5], 12.3 nM | – | 0.847
E34 [5], 37 nM | – | 0.941
E34 [5], 111.1 nM | – | 1.06
E34 [5], 333.3 nM | – | 0.876
E34 [5], 1000 nM | – | 1.1
E34 [5], 3000 nM | – | 0.949
E34 [12], 4.1 nM | 0.622 | –
E34 [12], 12.3 nM | 0.866 | –
E34 [12], 37 nM | 0.551 | –
E34 [12], 111.1 nM | 0.616 | –
E34 [12], 333.3 nM | 0.597 | –
E34 [12], 1000 nM | 0.71 | –
E34 [12], 3000 nM | 0.686 | –
E57 [6], 4.1 nM | – | 1.05
E57 [6], 12.3 nM | – | 0.959
E57 [6], 37 nM | – | 1.11
E57 [6], 111.1 nM | – | 1.14
E57 [6], 333.3 nM | – | 1.1
E57 [6], 1000 nM | – | 1.09
E57 [6], 3000 nM | – | 1.06
E57 [13], 4.1 nM | 0.6 | –
E57 [13], 12.3 nM | 1.04 | –
E57 [13], 37 nM | 0.554 | –
E57 [13], 111.1 nM | 0.801 | –
E57 [13], 333.3 nM | 0.597 | –
E57 [13], 1000 nM | 0.686 | –
E57 [13], 3000 nM | 0.742 | –
FT3469 [7], 4.1 nM | – | 0.985
FT3469 [7], 12.3 nM | – | 1.11
FT3469 [7], 37 nM | – | 1.03
FT3469 [7], 111.1 nM | – | 0.965
FT3469 [7], 333.3 nM | – | 1.01
FT3469 [7], 1000 nM | – | 1.24
FT3469 [7], 3000 nM | – | 1.13
FT3469 [14], 4.1 nM | 0.45 | –
FT3469 [14], 12.3 nM | 0.575 | –
FT3469 [14], 37 nM | 0.676 | –
FT3469 [14], 111.1 nM | 0.814 | –
FT3469 [14], 333.3 nM | 0.71 | –
FT3469 [14], 1000 nM | 0.957 | –
FT3469 [14], 3000 nM | 0.566 | –
